{"source": "patent US20090215628A1", "about": "“Benzoyl-Substituted Alanines” (BASF SE, priority 2006, published 2009)", "test_in_all_cases": "greenhouse post-emergence herbicidal test", "assay_type_in_all_cases": "in vivo", "key": {"Amaranthus retroflexus": {"test_system": "Amaranthus retroflexus", "description": "(§1) The seeds of the test plants were sown separately for each species. For the post-emergence treatment, the test plants were first grown to a height of 3 to 15 cm, depending on the plant habit, and only then treated with the active compounds which had been suspended or emulsified in water. For this purpose, the test plants were either sown directly and grown in the same containers, or they were first grown separately as seedlings and transplanted into the test containers a few days prior to treatment. […] (active substance). Depending on the species, the plants were kept at 10-25° C. or 20-35° C. The test period extended over 2 to 4 weeks. During this time, the plants were tended, and their response to the individual treatments was evaluated. Evaluation was carried out using a scale from 0 to 100. 100 means no emergence of the plants, or complete destruction of at least the aerial parts, and 0 means no damage, or normal course of growth. The plants used in the greenhouse experiments belonged to the following species: [table]"}, "Chenopodium album": {"test_system": "Chenopodium album", "description": "as §1"}, "Galium aparine": {"test_system": "Galium aparine", "settings": "application rate 0.5 kg/ha", "description": "as §1"}, "Setaria viridis": {"test_system": "Setaria viridis", "settings": "application rate 1 kg/ha", "description": "The seeds of the test plants were sown separately for each species. For the post-emergence treatment, the test plants were first grown to a height of 3 to 15 cm, depending on the plant habit, and only then treated with the active compounds which had been suspended or emulsified in water. For this purpose, the test plants were either sown directly and grown in the same containers, or they were first grown separately as seedlings and transplanted into the test containers a few days prior to treatment. The rate of application for the post-emergence treatment was 1.0 kg/ha of a.s. (active substance). Depending on the species, the plants were kept at 10-25° C. or 20-35° C. The test period extended over 2 to 4 weeks. During this time, the plants were tended, and their response to the individual treatments was evaluated. Evaluation was carried out using a scale from 0 to 100. 100 means no emergence of the plants, or complete destruction of at least the aerial parts, and 0 means no damage, or normal course of growth. The plants used in the greenhouse experiments belonged to the following species: [table]"}}}
{"smiles": "CNC(=O)C(NC(=O)c1ccc(F)cc1C(F)(F)F)C(c1ccccc1)C(C)[N+](=O)[O-]", "note": "(mixture of isomers) [Compound 5.2]", "values": [{"measurement": "post-emergence activity against Amaranthus retroflexus", "setting": "Amaranthus retroflexus; application rate 0.5 kg/ha", "value": "very good"}, {"measurement": "post-emergence activity against Chenopodium album", "setting": "Chenopodium album; application rate 0.5 kg/ha", "value": "very good"}, {"measurement": "post-emergence activity against Galium aparine", "setting": "Galium aparine", "value": "very good"}]}
{"smiles": "CNC(=O)C(NC(=O)c1ccc(F)cc1C(F)(F)F)C(C[N+](=O)[O-])c1cccc(F)c1", "note": "(mixture of isomers) [Compound 5.3]", "values": [{"measurement": "post-emergence activity against Amaranthus retroflexus", "setting": "Amaranthus retroflexus; application rate 1 kg/ha", "value": "very good"}, {"measurement": "post-emergence activity against Chenopodium album", "setting": "Chenopodium album; application rate 1 kg/ha", "value": "good"}]}
{"smiles": "CNC(=O)C(NC(=O)c1ccc(F)cc1C(F)(F)F)C(c1ccccc1C)C(C)O", "note": "(racemic) [Compound 3.12]", "values": [{"measurement": "post-emergence activity against Amaranthus retroflexus", "setting": "Amaranthus retroflexus; application rate 0.5 kg/ha", "value": "very good"}, {"measurement": "post-emergence activity against Chenopodium album", "setting": "Chenopodium album; application rate 0.5 kg/ha", "value": "very good"}, {"measurement": "post-emergence activity against Galium aparine", "setting": "Galium aparine", "value": "very good"}]}
{"smiles": "CNC(=O)C(NC(=O)c1ccc(F)cc1C(F)(F)F)C(CNS(C)(=O)=O)c1ccccc1", "note": "(mixture of isomers) [Compound 4.4]", "values": [{"measurement": "post-emergence activity against Amaranthus retroflexus", "setting": "Amaranthus retroflexus; application rate 1 kg/ha", "value": "very good"}, {"measurement": "post-emergence activity against Chenopodium album", "setting": "Chenopodium album; application rate 1 kg/ha", "value": "very good"}, {"measurement": "post-emergence activity against Setaria viridis", "setting": "Setaria viridis", "value": "very good"}]}
{"smiles": "CNC(=O)C(NC(=O)c1ccc(F)cc1C(F)(F)F)C(CNC(=O)N(C)C)c1ccccc1C", "note": "(mixture of isomers) [Compound 4.33]", "values": [{"measurement": "post-emergence activity against Amaranthus retroflexus", "setting": "Amaranthus retroflexus; application rate 1 kg/ha", "value": "very good"}, {"measurement": "post-emergence activity against Chenopodium album", "setting": "Chenopodium album; application rate 1 kg/ha", "value": "very good"}, {"measurement": "post-emergence activity against Setaria viridis", "setting": "Setaria viridis", "value": "very good"}]}
{"smiles": "CNC(=O)C(NC(=O)c1ccc(F)cc1C(F)(F)F)C(CNC(=O)C(Cl)(Cl)Cl)c1ccccc1", "note": "(racemic) [Compound 4.22]", "values": [{"measurement": "post-emergence activity against Amaranthus retroflexus", "setting": "Amaranthus retroflexus; application rate 1 kg/ha", "value": "very good"}, {"measurement": "post-emergence activity against Chenopodium album", "setting": "Chenopodium album; application rate 1 kg/ha", "value": "very good"}, {"measurement": "post-emergence activity against Setaria viridis", "setting": "Setaria viridis", "value": "very good"}]}
{"smiles": "CNC(=O)C(NC(=O)c1ccc(F)cc1C(F)(F)F)C(C[N+](=O)[O-])c1ccccc1", "note": "(racemic) [Compound 5.1, 4-Fluoro-N-(1-methylcarbamoyl-3-nitro-2-phenylpropyl)-2-trifluoromethylbenzamide]", "values": [{"measurement": "post-emergence activity against Amaranthus retroflexus", "setting": "Amaranthus retroflexus; application rate 0.5 kg/ha", "value": "very good"}, {"measurement": "post-emergence activity against Chenopodium album", "setting": "Chenopodium album; application rate 0.5 kg/ha", "value": "good"}, {"measurement": "post-emergence activity against Galium aparine", "setting": "Galium aparine", "value": "good"}]}
{"smiles": "CNC(=O)[C@@H](NC(=O)c1ccc(F)cc1C(F)(F)F)[C@H](CNC(C)=O)c1ccccc1", "note": "(racemic) [Compound 4.16, N-((1RS,2RS)-3-Acetylamino-1-methylcarbamoyl-2-phenylpropyl)-4-fluoro-2-trifluoromethylbenzamide]", "values": [{"measurement": "post-emergence activity against Amaranthus retroflexus", "setting": "Amaranthus retroflexus; application rate 1 kg/ha", "value": "very good"}, {"measurement": "post-emergence activity against Chenopodium album", "setting": "Chenopodium album; application rate 1 kg/ha", "value": "very good"}, {"measurement": "post-emergence activity against Setaria viridis", "setting": "Setaria viridis", "value": "very good"}]}
{"smiles": "CNC(=O)C(NC(=O)c1ccc(F)cc1C(F)(F)F)C(CNC(=O)C(F)(F)F)c1ccccc1", "note": "(racemic) [Compound 4.21]", "values": [{"measurement": "post-emergence activity against Amaranthus retroflexus", "setting": "Amaranthus retroflexus; application rate 1 kg/ha", "value": "very good"}, {"measurement": "post-emergence activity against Chenopodium album", "setting": "Chenopodium album; application rate 1 kg/ha", "value": "very good"}, {"measurement": "post-emergence activity against Setaria viridis", "setting": "Setaria viridis", "value": "very good"}]}
{"smiles": "CNC(=O)C(NC(=O)c1ccc(F)cc1C(F)(F)F)C(CNC(=O)N(C)C)c1ccccc1", "note": "(racemic) [Compound 4.12]", "values": [{"measurement": "post-emergence activity against Amaranthus retroflexus", "setting": "Amaranthus retroflexus; application rate 1 kg/ha", "value": "very good"}, {"measurement": "post-emergence activity against Chenopodium album", "setting": "Chenopodium album; application rate 1 kg/ha", "value": "very good"}, {"measurement": "post-emergence activity against Setaria viridis", "setting": "Setaria viridis", "value": "very good"}]}
{"smiles": "CNC(=O)C(NC(=O)c1ccc(F)cc1C(F)(F)F)C(C[N+](=O)[O-])c1cccc(F)c1C", "note": "(mixture of isomers) [Compound 5.4]", "values": [{"measurement": "post-emergence activity against Amaranthus retroflexus", "setting": "Amaranthus retroflexus; application rate 1 kg/ha", "value": "very good"}, {"measurement": "post-emergence activity against Chenopodium album", "setting": "Chenopodium album; application rate 1 kg/ha", "value": "very good"}]}
{"smiles": "CNC(=O)C(NC(=O)c1ccc(F)cc1C(F)(F)F)C(CNC(C)=O)c1cccc(F)c1C", "note": "(mixture of isomers) [Compound 4.36]", "values": [{"measurement": "post-emergence activity against Amaranthus retroflexus", "setting": "Amaranthus retroflexus; application rate 1 kg/ha", "value": "very good"}, {"measurement": "post-emergence activity against Chenopodium album", "setting": "Chenopodium album; application rate 1 kg/ha", "value": "very good"}, {"measurement": "post-emergence activity against Setaria viridis", "setting": "Setaria viridis", "value": "very good"}]}
{"smiles": "CNC(=O)C(NC(=O)c1ccc(F)cc1C(F)(F)F)C(CNC(C)=O)c1ccccc1C", "note": "(mixture of isomers) [Compound 4.34]", "values": [{"measurement": "post-emergence activity against Amaranthus retroflexus", "setting": "Amaranthus retroflexus; application rate 1 kg/ha", "value": "very good"}, {"measurement": "post-emergence activity against Chenopodium album", "setting": "Chenopodium album; application rate 1 kg/ha", "value": "very good"}, {"measurement": "post-emergence activity against Setaria viridis", "setting": "Setaria viridis", "value": "very good"}]}
